According to ChEMBL document CHEMBL1201861, “Genomics of Drug Sensitity in Cancer screening data, Wellcome Trust Sanger Institute”:

How the values were obtained:
Test in all cases: cells
LC-2-ad = format: functional, cell-based, Homo sapiens; conditions: Homo sapiens, LC-2-ad;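 also: growth inhibition of human LC-2-ad cells, read out with a cell viability assay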
Description: SANGER: Inhibition of human LC-2-ad cell growth in a cell viability assay.

KE-37 = format: functional, cell-based, Homo sapiens; conditions: Homo sapiens, KE-37;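 also: growth inhibition of KE-37 cells, read out with a cell viability assay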
Description: SANGER: Inhibition of human KE-37 cell growth in a cell viability assay.

KINGS-1 = format: functional, cell-based, Homo sapiens; conditions: Homo sapiens, KINGS-1;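 also: cell viability assay measuring suppression of KINGS-1 cell growth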
Description: SANGER: Inhibition of human KINGS-1 cell growth in a cell viability assay.

SW 954 = format: functional, cell-based, Homo sapiens; conditions: Homo sapiens, SW 954;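 also: growth inhibition of SW954 human cancer cells, read out as cell viability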
Description: SANGER: Inhibition of human SW954 cell growth in a cell viability assay.

MZ7-mel = format: functional, cell-based, Homo sapiens; conditions: Homo sapiens, MZ7-mel;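 also: growth inhibition of human MZ7-mel cells, measured by a cell viability assay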
Description: SANGER: Inhibition of human MZ7-mel cell growth in a cell viability assay.

A498 = format: functional, cell-based, Homo sapiens; conditions: Homo sapiens, A498;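 also: growth inhibition of human A498 cells, read out with a cell viability assay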
Description: SANGER: Inhibition of human A498 cell growth in a cell viability assay.

SH-4 = format: functional, cell-based, Homo sapiens; conditions: Homo sapiens, SH-4;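 also: growth inhibition of SH-4 cells, read out with a cell viability assay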
Description: SANGER: Inhibition of human SH-4 cell growth in a cell viability assay.

HEL = format: functional, cell-based, Homo sapiens; conditions: Homo sapiens, HEL;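 also: growth inhibition of HEL cells, read out with a cell viability assay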
Description: SANGER: Inhibition of human HEL cell growth in a cell viability assay.

GT3TKB = format: functional, cell-based, Homo sapiens; conditions: Homo sapiens, GT3TKB;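 also: growth inhibition of the cell line, read out with a cell viability assay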
Description: SANGER: Inhibition of human GT3TKB cell growth in a cell viability assay.

MZ2-MEL = format: functional, cell-based, Homo sapiens; conditions: Homo sapiens, MZ2-MEL;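 also: growth inhibition of MZ2-MEL cells read out with a cell viability assay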
Description: SANGER: Inhibition of human MZ2-MEL cell growth in a cell viability assay.

HCC 2998 = format: functional, cell-based, Homo sapiens; conditions: Homo sapiens, HCC 2998;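 also: growth inhibition of human HCC2998 cells, measured with a cell viability read-out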
Description: SANGER: Inhibition of human HCC2998 cell growth in a cell viability assay.

KM-H2 = format: functional, cell-based, Homo sapiens; conditions: Homo sapiens, KM-H2;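 also: growth inhibition of KM-H2 cells, read out by a cell viability assay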
Description: SANGER: Inhibition of human KM-H2 cell growth in a cell viability assay.

NEC8 = format: functional, cell-based, Homo sapiens; conditions: Homo sapiens, NEC8;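 also: growth inhibition of human NEC8 cells, read out by a cell viability assay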
Description: SANGER: Inhibition of human NEC8 cell growth in a cell viability assay.

D-502MG = format: functional, cell-based, Homo sapiens; conditions: Homo sapiens, D-502MG
Description: SANGER: Inhibition of human D-502MG cell growth in a cell viability assay.

SW684 = format: functional, cell-based, Homo sapiens; conditions: Homo sapiens, SW684;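 also: growth inhibition of human SW684 cells, measured by a cell viability assay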
Description: SANGER: Inhibition of human SW684 cell growth in a cell viability assay.

EM-2 = format: functional, cell-based, Homo sapiens; conditions: Homo sapiens, EM-2;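 also: growth inhibition of EM-2 cells, read out with a cell viability assay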
Description: SANGER: Inhibition of human EM-2 cell growth in a cell viability assay.

ACN = format: functional, cell-based, Homo sapiens; conditions: Homo sapiens, ACN;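 also: growth inhibition of the human ACN cell line, read out via cell viability testing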
Description: SANGER: Inhibition of human ACN cell growth in a cell viability assay.

SF-268 = format: functional, cell-based, Homo sapiens; conditions: Homo sapiens, SF-268;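 also: growth inhibition of SF-268 cells determined with a cell viability assay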
Description: SANGER: Inhibition of human SF268 cell growth in a cell viability assay.

KMOE-2 = format: functional, cell-based, Homo sapiens; conditions: Homo sapiens, KMOE-2;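 also: growth inhibition of human KMOE-2 cells, read out with a cell viability assay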
Description: SANGER: Inhibition of human KMOE-2 cell growth in a cell viability assay.

TK-10 = format: functional, cell-based, Homo sapiens; conditions: Homo sapiens, TK-10;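 also: growth inhibition of TK-10 cells, read out in a cell viability assay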
Description: SANGER: Inhibition of human TK10 cell growth in a cell viability assay.

SHP77 = format: functional, cell-based, Homo sapiens, SHP-77; conditions: Homo sapiens, SHP77;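 also: growth inhibition of human SHP-77 cells measured by a cell viability assay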
Description: SANGER: Inhibition of human SHP-77 cell growth in a cell viability assay.

SK-MEL-2 = format: functional, cell-based, Homo sapiens; conditions: Homo sapiens, SK-MEL-2;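 also: growth inhibition of human SK-MEL-2 cells measured with a cell viability assay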
Description: SANGER: Inhibition of human SK-MEL-2 cell growth in a cell viability assay.

MPP-89 = format: functional, cell-based, Homo sapiens; conditions: Homo sapiens, MPP-89;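 also: growth inhibition of human MPP-89 cells, read out with a cell viability assay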
Description: SANGER: Inhibition of human MPP-89 cell growth in a cell viability assay.

BB30-HNC = format: functional, cell-based, Homo sapiens; conditions: Homo sapiens, BB30-HNC;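 also: growth inhibition of the cultured cell line, read out by a cell viability assay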
Description: SANGER: Inhibition of human BB30-HNC cell growth in a cell viability assay.

RPMI-8226 = format: functional, cell-based, Homo sapiens; conditions: Homo sapiens, RPMI-8226
Description: SANGER: Inhibition of human RPMI-8226 cell growth in a cell viability assay.

PSN1 = format: functional, cell-based, Homo sapiens; conditions: Homo sapiens, PSN1;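 also: suppression of growth of human PSN1 cells, read out by a cell viability assay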
Description: SANGER: Inhibition of human PSN1 cell growth in a cell viability assay.

GAK = format: functional, cell-based, Homo sapiens; conditions: Homo sapiens, GAK;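 also: cell growth inhibition read out by a cell viability assay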
Description: SANGER: Inhibition of human GAK cell growth in a cell viability assay.

ES8 = format: functional, cell-based, Homo sapiens; conditions: Homo sapiens, ES8;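 also: growth inhibition of human ES8 cells, read out with a cell viability assay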
Description: SANGER: Inhibition of human ES8 cell growth in a cell viability assay.

LB996-RCC = format: functional, cell-based, Homo sapiens; conditions: Homo sapiens, LB996-RCC
Description: SANGER: Inhibition of human LB996-RCC cell growth in a cell viability assay.

BT-474 = format: functional, cell-based, Homo sapiens; conditions: Homo sapiens, BT-474
Description: SANGER: Inhibition of human BT-474 cell growth in a cell viability assay.

NCI-H226 = format: functional, cell-based, Homo sapiens; conditions: Homo sapiens, NCI-H226;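 also: cell viability read-out used to gauge growth inhibition of the cells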
Description: SANGER: Inhibition of human NCI-H226 cell growth in a cell viability assay.

ALL-PO = format: functional, cell-based, Homo sapiens; conditions: Homo sapiens, ALL-PO;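 also: growth inhibition of ALL-PO cells, read out by a cell viability assay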
Description: SANGER: Inhibition of human ALL-PO cell growth in a cell viability assay.

U-87 MG = format: functional, cell-based, Homo sapiens, U-87MG ATCC; conditions: Homo sapiens, U-87 MG;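 also: growth inhibition of the cells measured with a viability assay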
Description: SANGER: Inhibition of human U-87-MG cell growth in a cell viability assay.

KNS-81-FD = format: functional, cell-based, Homo sapiens; conditions: Homo sapiens, KNS-81-FD;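 also: growth inhibition of KNS-81-FD cells, read out with a cell viability assay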
Description: SANGER: Inhibition of human KNS-81-FD cell growth in a cell viability assay.

ES1 = format: functional, cell-based, Homo sapiens; conditions: Homo sapiens, ES1;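 also: growth inhibition of ES1 cells, read out with a cell viability assay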
Description: SANGER: Inhibition of human ES1 cell growth in a cell viability assay.

no-11 = format: functional, cell-based, Homo sapiens; conditions: Homo sapiens;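 also: growth inhibition of human NO-11 cells, read out with a cell viability assay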
Description: SANGER: Inhibition of human no-11 cell growth in a cell viability assay.

OCUB-M = format: functional, cell-based, Homo sapiens; conditions: Homo sapiens, OCUB-M;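 also: growth inhibition of the cancer cell line, read out through a cell viability assay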
Description: SANGER: Inhibition of human OCUB-M cell growth in a cell viability assay.

EW-3 = format: functional, cell-based, Homo sapiens; conditions: Homo sapiens, EW-3;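 also: cell viability assay read-out, IC50 reflects inhibition of growth of the EW-3 cells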
Description: SANGER: Inhibition of human EW-3 cell growth in a cell viability assay.

COLO-668 = format: functional, cell-based, Homo sapiens; conditions: Homo sapiens, COLO-668
Description: SANGER: Inhibition of human COLO-668 cell growth in a cell viability assay.

EW-16 = format: functional, cell-based, Homo sapiens; conditions: Homo sapiens, EW-16;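 also: growth inhibition of human EW-16 cells, read out as cell viability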
Description: SANGER: Inhibition of human EW-16 cell growth in a cell viability assay.

CGTH-W-1 = format: functional, cell-based, Homo sapiens; conditions: Homo sapiens, CGTH-W-1;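 also: growth inhibition of human CGTH-W-1 cells measured by cell viability assay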
Description: SANGER: Inhibition of human CGTH-W-1 cell growth in a cell viability assay.

NCI-H209 = format: functional, cell-based, Homo sapiens; conditions: Homo sapiens, NCI-H209;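 also: growth inhibition of human NCI-H209 cells, measured by a cell viability assay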
Description: SANGER: Inhibition of human NCI-H209 cell growth in a cell viability assay.

IST-MEL1 = format: functional, cell-based, Homo sapiens; conditions: Homo sapiens, IST-MEL1;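 also: growth inhibition of the cell line, read out with a cell viability assay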
Description: SANGER: Inhibition of human IST-MEL1 cell growth in a cell viability assay.

NB10 = format: functional, cell-based, Homo sapiens; conditions: Homo sapiens, NB10;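 also: growth inhibition of NB10 cells, read out by a cell viability assay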
Description: SANGER: Inhibition of human NB10 cell growth in a cell viability assay.

MFH-ino = format: functional, cell-based, Homo sapiens; conditions: Homo sapiens, MFH-ino;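 also: growth inhibition of human MFH-ino cells, read out by a cell viability assay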
Description: SANGER: Inhibition of human MFH-ino cell growth in a cell viability assay.

LS-411N = format: functional, cell-based, Homo sapiens; conditions: Homo sapiens, LS-411N
HOP-62 = format: functional, cell-based, Homo sapiens; conditions: Homo sapiens, HOP-62;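 also: cell growth inhibition determined with a viability assay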
Description: SANGER: Inhibition of human HOP-62 cell growth in a cell viability assay.

Q: What does the source list for `COc1cc2ncn(-c3cc(OCc4ccccc4S(C)(=O)=O)c(C#N)s3)c2cc1OC` [GSK-319347A]?
A: IC50 (LC-2-ad): > 5 µM; IC50 (KE-37): > 5 µM; IC50 (KINGS-1): > 5 µM; IC50 (SW 954): > 5 µM; IC50 (MZ7-mel): > 5 µM; IC50 (A498): > 5 µM; IC50 (SH-4): > 5 µM; IC50 (HEL): > 5 µM; IC50 (GT3TKB): > 5 µM; IC50 (MZ2-MEL): > 5 µM; IC50 (HCC 2998): > 5 µM; IC50 (KM-H2): > 5 µM; IC50 (NEC8): > 5 µM; IC50 (D-502MG): > 5 µM; IC50 (SW684): > 5 µM; IC50 (EM-2): > 5 µM; IC50 (ACN): > 5 µM; IC50 (SF-268): > 5 µM; IC50 (KMOE-2): > 5 µM; IC50 (TK-10): > 5 µM; IC50 (SHP77): > 5 µM; IC50 (SK-MEL-2): > 5 µM; IC50 (MPP-89): > 5 µM; IC50 (BB30-HNC): > 5 µM; IC50 (RPMI-8226): > 5 µM; IC50 (PSN1): > 5 µM; IC50 (GAK): > 5 µM; IC50 (ES8): > 5 µM; IC50 (LB996-RCC): > 5 µM; IC50 (BT-474): > 5 µM; IC50 (NCI-H226): > 5 µM; IC50 (ALL-PO): > 5 µM; IC50 (U-87 MG): > 5 µM; IC50 (KNS-81-FD): > 5 µM; IC50 (ES1): > 5 µM; IC50 (no-11): > 5 µM; IC50 (OCUB-M): > 5 µM; IC50 (EW-3): > 5 µM; IC50 (COLO-668): > 5 µM; IC50 (EW-16): > 5 µM; IC50 (CGTH-W-1): > 5 µM; IC50 (NCI-H209): > 5 µM; IC50 (IST-MEL1): > 5 µM; IC50 (NB10): > 5 µM; IC50 (MFH-ino): > 5 µM; IC50 (LS-411N): > 5 µM; IC50 (HOP-62): > 5 µM

Q: What does the source list for `CC[C@H](CO)Nc1nc(NCc2ccccc2)c2ncn(C(C)C)c2n1` [SELICICLIB]?
A: IC50 (LC-2-ad): > 16 µM; IC50 (KE-37): > 16 µM; IC50 (KINGS-1): > 16 µM; IC50 (SW 954): > 16 µM; IC50 (MZ7-mel): > 16 µM; IC50 (SH-4): > 16 µM; IC50 (HEL): > 16 µM; IC50 (GT3TKB): > 16 µM; IC50 (MZ2-MEL): > 16 µM; IC50 (HCC 2998): > 16 µM; IC50 (KM-H2): > 16 µM; IC50 (NEC8): > 16 µM; IC50 (D-502MG): > 16 µM; IC50 (SW684): > 16 µM; IC50 (EM-2): > 16 µM; IC50 (ACN): > 16 µM; IC50 (SF-268): > 16 µM; IC50 (KMOE-2): > 16 µM; IC50 (TK-10): > 16 µM; IC50 (SHP77): > 16 µM; IC50 (SK-MEL-2): > 16 µM; IC50 (MPP-89): > 16 µM; IC50 (BB30-HNC): > 16 µM; IC50 (RPMI-8226): > 16 µM; IC50 (PSN1): > 16 µM; IC50 (ES8): > 16 µM; IC50 (LB996-RCC): > 16 µM; IC50 (BT-474): > 16 µM; IC50 (NCI-H226): > 16 µM; IC50 (ALL-PO): > 16 µM; IC50 (U-87 MG): > 16 µM; IC50 (KNS-81-FD): > 16 µM; IC50 (ES1): > 16 µM; IC50 (no-11): > 16 µM; IC50 (OCUB-M): > 16 µM; IC50 (EW-3): > 16 µM; IC50 (COLO-668): > 16 µM; IC50 (EW-16): > 16 µM; IC50 (CGTH-W-1): > 16 µM; IC50 (NCI-H209): > 16 µM; IC50 (IST-MEL1): > 16 µM; IC50 (NB10): > 16 µM; IC50 (MFH-ino): > 16 µM; IC50 (LS-411N): > 16 µM; IC50 (HOP-62): > 16 µM
